Results on two compounds are retold here after ChEMBL document CHEMBL1649229, “Efficacy of high doses of daptomycin versus alternative therapies against experimental foreign-body infection by methicillin-resistant Staphylococcus aureus” (Antimicrob Agents Chemother, 2009).

What is called MBC is the lowest tested concentration that kills the bacteria rather than only halting them. As usually defined, the MIC is the smallest concentration in the dilution series that meets the test's criterion for growth inhibition. Higher therefore signals weaker potency.

In test [1] the test system is Staphylococcus aureus. Kind of test: Antimicrobial activity against methicillin-resistant Staphylococcus aureus HUSA 304 infected in Wistar rat assessed as decrease in bacterial load in tissue cage fluid at 35 mg/kg, ip administered every 12 hrs for 7 days measured on day 11 post treatment. It counts as functional. The following applies: route intraperitoneal.
For test [2], the system named is Staphylococcus aureus. Kind of test: Bactericidal activity against stationary-phase methicillin-resistant Staphylococcus aureus HUSA 304 after 24 hrs by time kill analysis in presence of 50 mg/L calcium ions. It counts as functional. The conditions noted are these: HUSA 304, 24 h.
In test [3] the test system is Staphylococcus aureus. Put plainly: Antimicrobial activity against log-phase methicillin-resistant Staphylococcus aureus HUSA 304 by M7-A6 method. The class given is functional.
The test system of test [4] is Staphylococcus aureus. Put plainly: Bactericidal activity against log-phase methicillin-resistant Staphylococcus aureus HUSA 304 after 24 hrs by time kill analysis in presence of 50 mg/L calcium ions. The class given is functional. The conditions noted are these: HUSA 304, 24 h.
Test [5] deals with Staphylococcus aureus. Kind of test: Antimicrobial activity against methicillin-resistant Staphylococcus aureus HUSA 304 infected in Wistar rat assessed as decrease in bacterial load in tissue cage fluid at 35 mg/kg, ip administered every 12 hrs for 7 days measured on day 8 post treatment. It counts as functional. The conditions noted are these: route intraperitoneal.
In test [6] the test system is Staphylococcus aureus. Put plainly: Antimicrobial activity against methicillin-resistant Staphylococcus aureus HUSA 304 infected in Wistar rat assessed as decrease in bacterial load in tissue cage fluid at 50 mg/kg, ip administered every 12 hrs for 7 days measured on day 11 post treatment. The class given is functional. The conditions noted are these: route intraperitoneal.

Test [7] relates to Staphylococcus aureus. Put plainly: Antimicrobial activity against log-phase methicillin-resistant Staphylococcus aureus HUSA 304 assessed as resistant bacteria on coverslip selected on 4 ug/ml of compound measured on day 11 post treatment. The class given is functional, organism-based.
The test system of test [8] is Staphylococcus aureus. Put plainly: Antimicrobial activity against log-phase methicillin-resistant Staphylococcus aureus HUSA 304 assessed as resistant bacteria in tissue cage fluid selected on 4 ug/ml of compound measured on day 8 post treatment. The class given is functional, organism-based.
The subject of test [9] is Staphylococcus aureus. Kind of test: Antimicrobial activity against methicillin-resistant Staphylococcus aureus HUSA 304 infected in Wistar rat assessed as decrease in bacterial load in tissue cage fluid at 50 mg/kg, ip administered every 12 hrs for 7 days measured on day 8 post treatment. The conditions noted are these: route intraperitoneal. It counts as functional.
The test system of test [10] is Staphylococcus aureus. Put plainly: Antimicrobial activity against log-phase methicillin-resistant Staphylococcus aureus HUSA 304 assessed as resistant bacteria in tissue cage fluid selected on 4 ug/ml of compound measured on day 11 post treatment. The class given is functional, organism-based.

Each structure is given as a SMILES string. Converted amounts (≈) assume the structure as drawn. The source made the active and inactive calls.

For `CO[C@H]1/C=C/O[C@@]2(C)Oc3c(C)c(O)c4c(O)c(c(/C=N/N5CCN(C)CC5)c(O)c4c3C2=O)NC(=O)/C(C)=C\C=C\[C@H](C)[C@H](O)[C@@H](C)[C@@H](O)[C@@H](C)[C@H](OC(C)=O)[C@@H]1C` [RIFAMPIN], the log10cfu in the test with Staphylococcus aureus [1] is 1.1; with Staphylococcus aureus [5] it was 1.36. For the same compound, the MBC was greater than 8 µg/mL in the test with Staphylococcus aureus [2] and 0.5 µg/mL in the test on Staphylococcus aureus [4]. Moreover, the minimal inhibitory concentration (MIC) against Staphylococcus aureus [3] is 0.03 µg/mL (≈ 0.0365 µM).

As for `CC(=O)NC[C@H]1CN(c2ccc(N3CCOCC3)c(F)c2)C(=O)O1` [LINEZOLID], the log10cfu is 0.93 in the test with Staphylococcus aureus [6] and 1.06 in the test with Staphylococcus aureus [9]. The MBC with Staphylococcus aureus [2] and in the test with Staphylococcus aureus [4] was greater than 32 µg/mL each time. The result with Staphylococcus aureus [7], in the test with Staphylococcus aureus [8] and with Staphylococcus aureus [10] was Active.
